Measured values: patent US20100168120A1, “SALTS OF PYRIDAZINE COMPOUNDS” (NEUROMEDIX INC., priority 2006, published 2010)
“Also recorded” adds a separate entry of the source. Read-outs that look alike come from different tables or passages of the source. Values belong to the compound of their own block, whether it stands above or below them.

What was measured:
LPS inflammation model = assay: Systemic proinflammatory cytokine expression after LPS challenge; format: in vivo, mouse; conditions: 15 mg/kg orally for 14 days, LPS challenge day 15, serum at 6 hours
Method: The effect of Minozac on the systemic expression of proinflammatory cytokines was determined. Briefly, saline (0.9% NaCL) or Minozac (15 mg/kg) was administered orally for 14 days. Mice were challenged with LPS at the 15th day. Mice were sacrificed at 6 hours after LPS challenge and blood harvested for serum. The levels of cytokines TNFα and […] in the serum were measured using the Meso-scale Discovery system according to manufacturer's instructions. The data for TNFα and IL-1β are shown in FIG. 4 as percent of the level observed in the saline treated mice.

[1] = system: human amyloid-beta (Aβ)-induced injury; assay: AD-relevant mouse model of human Aβ-induced injury (Aβ infusion model); format: in vivo; conditions: hippocampus, […] oral once daily for 2 weeks, dihydrochloride salt
Method: The efficacy of Minozac in an AD-relevant mouse model of human amyloid-beta (Aβ)-induced injury (infusion of human Aβ peptide) was determined. Briefly, C57BL/6 mice (n=5-10 mice per group) were subjected to either vehicle (Control) or human oligomeric Aβ1-42 intracerebroventricular (ICV) infusion for four weeks. […] Beginning at day 50 after the start of Aβ ICV infusion, the Y-maze test of spontaneous alternation was used to evaluate hippocampus-dependent spatial learning deficits. At day 60 after the start of Aβ ICV infusion, mice were sacrificed, perfused with buffer containing a protease inhibitor cocktail, and the brain was harvested. The brain was longitudinally bisected and the right half of the brain used for histology. The hippocampus was dissected from the left half of the brain. The levels of IL-1β, TNFα, S100B and synaptophysin were measured in hippocampal extracts by ELISA, and postsynaptic density-95 ([…]) levels were determined by Western blotting. Immunohistochemical detection of GFAP-positive astrocytes and F4/80 positive microglia was performed on 10 μm sections.

[2] = PK assessment in mice, plasma and brain after single oral dose; conditions: C57BL/6, mouse
[3] = In vitro metabolic stability in human liver microsomes; format: in vitro ADME; conditions: 5 μM or 25 μM, 10 or 30 min
Method: (§1) In particular FIG. 3 are bar graphs showing that MW01-9-034WH has improved metabolic stability in rat (A) and human (B) liver microsome incubations compared to minaprine. […] Extracts were prepared, and the amount of compound remaining was analyzed by HPLC using internal standards for recovery.

[4] = Chemical stability in water, dilute acid or dilute base; format: physicochemical; conditions: dilute acid, or dilute base at 37° C. over one week
[5] = In vitro metabolic stability in rat liver microsomes; format: in vitro ADME; conditions: 5 μM or 25 μM, 10 or 30 min
Method: as §1

physchem = conditions: 37 °C, water, aqueous solubility
[6] = logP by octanol/water partition coefficient
in vivo = assay: in vivo
Method: Plasma samples obtained from dog pharmacokinetic studies were analyzed using reversed phase HPLC with tandem mass spectrometric detection. Briefly, aliquots of internal standard (200 μl of 200 ng/ml) were added to protein precipitation plates (Sirocco protein precipitation plates, Waters Corporation, Milford, Mass., USA), followed by addition of plasma sample to the plate (50 μl). The plate was shaken for 3 minutes, and then a vacuum (maximum of −10 mm Hg) was applied to the plate for 3 minutes. Extract (75 μl) was transferred into a 2 ml 96-well plate, and to each sample was added 1425 μl of Eluent A (95:5:0.1 MilliQ water:acetonitrile:formic acid). 10 μl was injected onto the reverse phase column (ODS C18; 4×2 mm i.d.; Phenomenex, Torrance, USA). The mobile phase was set to 300 μl/min and eluate by mass spectrometry (APT 5000, Applied Biosystems). Calibration standards were processed along with the samples, and the concentration of Minozac [2-(4-(4-methyl-6-phenylpyridazin-3-yl)piperazin-1-yl)pyrimidine dihydrochloride salt] determined using a regression equation. […] The internal standard was compound code MW01-8-064WH (chemical name: 4-methyl-3-phenyl-6-((4-pyrimidin-2-yl)piperazin-1-yl)pyridazine).
The pharmacokinetics of Minozac was determined at 2.5 mg/kg following oral administration by gavage of an aqueous solution.
Intravenous dosing was also carried out at 2.5 mg/kg, but with drug in a 0.9% saline solution.
The pharmacokinetics were determined following oral dosing with a neutralized propylene glycol formulation (FIG. 6) and with filled gelatin capsules at a single dose of 2.5 mg/kg (FIG. 7).

IL-1β production = assay: Inhibition of IL-1β production (glial activation); format: cell-based; conditions: in words
NO production = assay: Inhibition of NO production (glial activation); format: cell-based; conditions: read-out: NO, concentration required for 50% inhibition

Structure (SMILES): Cc1cc(-c2ccccc2)nnc1N1CCN(c2ncccn2)CC1.Cl.Cl [Compound 16, 2-(4-(4-methyl-6-phenylpyridazin-3-yl)piperazin-1-yl)pyrimidine dihydrochloride salt]
systemic (serum) expression of IL-1β (LPS inflammation model): no effect
systemic (serum) expression of TNFα (LPS inflammation model): no effect
number of activated F4/80-positive microglia [1]: reduced
number of activated F4/80-positive microglia ([1]; listed as MW01-9-034WH): decreases
number of activated F4/80-positive microglia ([1]; listed as Minozac): reduced
Tmax ([2]; brain): ~0.25 h
half-life ([2]; brain): ~0.75 h
half-life ([2]; plasma): ~0.25 h
metabolic stability, compound remaining [3]: stable even after 30 min incubation
loss of material (chemical stability) [4]: less than 10%
metabolic stability, compound remaining [5]: stable even after 30 min incubation
solubility (physchem): > 322 mg/mL
logP [6]: 2.29
logP ([6]; octanol/water): 2.7
Vd (in vivo; Beagle, dog, iv, […], Vss): 44.5 ± 10.3 L
Vd (in vivo; Beagle, dog, iv, […], Vz): 95.1 ± 43.6 L
half-life (in vivo; in vivo, iv, […]): 4.49 h
bioavailability (in vivo; in vivo, po, […]): 23%
half-life (in vivo; in vivo, po, […]): 2.1 h
bioavailability (in vivo; male, Beagle, dog): 16%
bioavailability (in vivo; male, Beagle, dog, po): 21%
half-life (in vivo; male, Beagle, dog, po, […], t1/2): 1.47 h

Structure (SMILES): Cc1cc(-c2ccccc2)nnc1N1CCN(c2ncccn2)CC1.Cl.Cl [Compound 6]
selective suppression of IL-1 production compared to NO production (IL-1β production): lost selectivity

Structure (SMILES): Cc1cc(-c2ccccc2)nnc1N1CCN(c2ncccn2)CC1 [Compound 5, 4-methyl-6-phenyl-3-(4-pyrimidin-2-ylpiperazin-1-yl)pyridazine]
selective suppression of IL-1 production compared to NO production (IL-1β production): retained selective suppression
IC50 (NO production): > 25 µM

Structure (SMILES): c1ccc(-c2cc(-c3ccccc3)c(N3CCN(c4ncccn4)CC3)nn2)cc1 [Compound 1, 4,6-diphenyl-3-(4-pyrimidin-2-ylpiperazin-1-yl)pyridazine]
logP ([6]; octanol/water): 2.3
IC50 (NO production): > 25 µM

metabolic stability, compound remaining [3]: majority of minaprine is gone by 10 min
metabolic stability, compound remaining [5]: majority of minaprine is gone by 10 min
Structure (SMILES): Cc1cc(-c2ccccc2)nnc1NCCN1CCOCC1 [minaprine, reference compound]

Structure (SMILES): Cc1cc(-c2ccccc2)nnc1N1CCN(C)CC1 [Compound 11]
activity (suppression of proinflammatory cytokine production in glia) (IL-1β production): loss of activity; also recorded: diminution of activity
